Values of other authors as cited in US20060106003A1, “Combination of a macrolide t-cell immunomodulator and a calciferol for the treatment of skin diseases or of inflammatory bowel disease” (priority 2003, published 2006).

Tested on: allogeneic kidney transplantation
Conditions: rat, oral administration; suppression of systemic immune response

In the case of `C=CC[C@@H]1/C=C(\C)C[C@H](C)C[C@H](OC)[C@H]2O[C@@](O)(C(=O)C(=O)N3CCCC[C@H]3C(=O)O[C@H](/C(C)=C/[C@@H]3CC[C@@H](O)[C@H](OC)C3)[C@H](C)[C@@H](O)CC1=O)[C@H](C)C[C@@H]2OC` [tacrolimus], the “minimum effective dose (MED)” value is listed as 14 mg/kg.
